PubChem BioAssay (NCI)
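Grown in 96-well plates, cells were treated for 48 hours with each compound at five concentrations. Insufficient inhibition: endpoint recorded as highest concentration tested. GI50 = concentration required for 50% inhibition of growth. Definition used: TGI = concentration required for complete inhibition of growth.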

Columns and labels:
Assay in all cases: inhibition of tumour cell growth, NCI panel, 48 h
SW-620 colon = system: SW-620 colon
SF-268 CNS = system: SF-268 CNS
COLO 205 colon = system: COLO 205 colon
ACHN renal = system: ACHN renal
A549 NSCLC = system: A549 NSCLC
SK-OV-3 ovarian = system: SK-OV-3 ovarian
PC-3 prostate = system: PC-3 prostate
CAKI-1 renal = system: CAKI-1 renal
T-47D breast = system: T-47D breast
IGROV1 ovarian = system: IGROV1 ovarian
K-562 leukemia = system: K-562 leukemia
HCT-15 colon = system: HCT-15 colon
HCT-116 colon = system: HCT-116 colon
HT29 colon = system: HT29 colon
HOP-92 NSCLC = system: HOP-92 NSCLC
NCI-H522 lung = system: NCI-H522 lung
MOLT-4 leukemia = system: MOLT-4 leukemia
MDA-MB-435 = system: MDA-MB-435
TK-10 renal = system: TK-10 renal
OVCAR-8 ovarian = system: OVCAR-8 ovarian
KM12 colon = system: KM12 colon
SNB-75 CNS = system: SNB-75 CNS
LOX IMVI melanoma = system: LOX IMVI melanoma
NCI/ADR-RES ovarian = system: NCI/ADR-RES ovarian
786-0 renal = system: 786-0 renal
BT-549 breast = system: BT-549 breast
SK-MEL-5 melanoma = system: SK-MEL-5 melanoma
NCI-H23 lung = system: NCI-H23 lung
UACC-257 melanoma = system: UACC-257 melanoma
OVCAR-5 ovarian = system: OVCAR-5 ovarian
SK-MEL-28 melanoma = system: SK-MEL-28 melanoma
RXF 393 renal = system: RXF 393 renal
DU-145 prostate = system: DU-145 prostate
SF-295 CNS = system: SF-295 CNS
U251 CNS = system: U251 CNS
HS 578T breast = system: HS 578T breast
SNB-19 CNS = system: SNB-19 CNS
SK-MEL-2 melanoma = system: SK-MEL-2 melanoma
EKVX NSCLC = system: EKVX NSCLC
MALME-3M melanoma = system: MALME-3M melanoma
OVCAR-3 ovarian = system: OVCAR-3 ovarian
SF-539 CNS = system: SF-539 CNS
MCF7 breast = system: MCF7 breast
M14 melanoma = system: M14 melanoma
UO-31 renal = system: UO-31 renal
NCI-H460 lung = system: NCI-H460 lung
OVCAR-4 ovarian = system: OVCAR-4 ovarian
HCC-2998 colon = system: HCC-2998 colon
HOP-62 NSCLC = system: HOP-62 NSCLC
NCI-H226 lung = system: NCI-H226 lung
HL-60(TB) leukemia = system: HL-60(TB) leukemia
RPMI-8226 leukemia = system: RPMI-8226 leukemia
A498 renal = system: A498 renal
MDA-MB-231 breast = system: MDA-MB-231 breast
CCRF-CEM leukemia = system: CCRF-CEM leukemia
UACC-62 melanoma = system: UACC-62 melanoma
SN12C renal = system: SN12C renal

Which results are given for `NCCc1ccc(S(=O)(=O)F)cc1`?
GI50 (SW-620 colon): 52800 nM; TGI (SW-620 colon): > 100000 nM; GI50 (SF-268 CNS): > 100000 nM; TGI (SF-268 CNS): > 100000 nM; GI50 (COLO 205 colon): > 100000 nM; TGI (COLO 205 colon): > 100000 nM; GI50 (ACHN renal): 45900 nM; TGI (ACHN renal): > 100000 nM; GI50 (A549 NSCLC): > 100000 nM; TGI (A549 NSCLC): > 100000 nM; GI50 (SK-OV-3 ovarian): > 100000 nM; TGI (SK-OV-3 ovarian): > 100000 nM; GI50 (PC-3 prostate): 42800 nM; TGI (PC-3 prostate): > 100000 nM; GI50 (CAKI-1 renal): 30300 nM; TGI (CAKI-1 renal): > 100000 nM; GI50 (T-47D breast): > 100000 nM; TGI (T-47D breast): > 100000 nM; GI50 (IGROV1 ovarian): 71700 nM; TGI (IGROV1 ovarian): > 100000 nM; GI50 (K-562 leukemia): 80700 nM; TGI (K-562 leukemia): > 100000 nM; GI50 (HCT-15 colon): 64400 nM; TGI (HCT-15 colon): > 100000 nM; GI50 (HCT-116 colon): 53700 nM; TGI (HCT-116 colon): > 100000 nM; GI50 (HT29 colon): > 100000 nM; TGI (HT29 colon): > 100000 nM; GI50 (HOP-92 NSCLC): 32900 nM; TGI (HOP-92 NSCLC): 96200 nM; GI50 (NCI-H522 lung): 73400 nM; TGI (NCI-H522 lung): > 100000 nM; GI50 (MOLT-4 leukemia): 32200 nM; TGI (MOLT-4 leukemia): > 100000 nM; GI50 (MDA-MB-435): 65100 nM; TGI (MDA-MB-435): > 100000 nM; GI50 (TK-10 renal): 59300 nM; TGI (TK-10 renal): > 100000 nM; GI50 (OVCAR-8 ovarian): > 100000 nM; TGI (OVCAR-8 ovarian): > 100000 nM; GI50 (KM12 colon): > 100000 nM; TGI (KM12 colon): > 100000 nM; GI50 (SNB-75 CNS): > 100000 nM; TGI (SNB-75 CNS): > 100000 nM; GI50 (LOX IMVI melanoma): 51100 nM; TGI (LOX IMVI melanoma): > 100000 nM; GI50 (NCI/ADR-RES ovarian): > 100000 nM; TGI (NCI/ADR-RES ovarian): > 100000 nM; GI50 (786-0 renal): 58200 nM; TGI (786-0 renal): > 100000 nM; GI50 (BT-549 breast): 27900 nM; TGI (BT-549 breast): > 100000 nM; GI50 (SK-MEL-5 melanoma): 59100 nM; TGI (SK-MEL-5 melanoma): > 100000 nM; GI50 (NCI-H23 lung): > 100000 nM; TGI (NCI-H23 lung): > 100000 nM; GI50 (UACC-257 melanoma): > 100000 nM; TGI (UACC-257 melanoma): > 100000 nM; GI50 (OVCAR-5 ovarian): 43400 nM; TGI (OVCAR-5 ovarian): > 100000 nM; GI50 (SK-MEL-28 melanoma): > 100000 nM; TGI (SK-MEL-28 melanoma): > 100000 nM; GI50 (RXF 393 renal): 37800 nM; TGI (RXF 393 renal): 98200 nM; GI50 (DU-145 prostate): 37000 nM; TGI (DU-145 prostate): > 100000 nM; GI50 (SF-295 CNS): 64500 nM; TGI (SF-295 CNS): > 100000 nM; GI50 (U251 CNS): 95100 nM; TGI (U251 CNS): > 100000 nM; GI50 (HS 578T breast): 82800 nM; TGI (HS 578T breast): > 100000 nM; GI50 (SNB-19 CNS): > 100000 nM; TGI (SNB-19 CNS): > 100000 nM; GI50 (SK-MEL-2 melanoma): 90900 nM; TGI (SK-MEL-2 melanoma): > 100000 nM; GI50 (EKVX NSCLC): 43300 nM; TGI (EKVX NSCLC): > 100000 nM; GI50 (MALME-3M melanoma): 96500 nM; TGI (MALME-3M melanoma): > 100000 nM; GI50 (OVCAR-3 ovarian): 31100 nM; TGI (OVCAR-3 ovarian): 78100 nM; GI50 (SF-539 CNS): 14800 nM; TGI (SF-539 CNS): 70000 nM; GI50 (MCF7 breast): 63500 nM; TGI (MCF7 breast): > 100000 nM; GI50 (M14 melanoma): > 100000 nM; TGI (M14 melanoma): > 100000 nM; GI50 (UO-31 renal): > 100000 nM; TGI (UO-31 renal): > 100000 nM; GI50 (NCI-H460 lung): 62300 nM; TGI (NCI-H460 lung): > 100000 nM; GI50 (OVCAR-4 ovarian): > 100000 nM; TGI (OVCAR-4 ovarian): > 100000 nM; GI50 (HCC-2998 colon): 39100 nM; TGI (HCC-2998 colon): > 100000 nM; GI50 (HOP-62 NSCLC): 57800 nM; TGI (HOP-62 NSCLC): > 100000 nM

Which results are given for `COc1cc(C(=O)O[C@H](C(=O)NCCCNC(=O)[C@@H](OC(=O)c2cc(OC)cc3c(C)cccc23)[C@]2(C)CO2)[C@]2(C)CO2)c2cccc(C)c2c1`?
GI50 (SW-620 colon): < 10 nM; GI50 (SF-268 CNS): < 10 nM; GI50 (COLO 205 colon): 59.3 nM; TGI (COLO 205 colon): 511 nM; GI50 (A549 NSCLC): 128 nM; TGI (A549 NSCLC): 718 nM; GI50 (NCI-H226 lung): 151 nM; TGI (NCI-H226 lung): 762 nM; GI50 (SK-OV-3 ovarian): 501 nM; TGI (SK-OV-3 ovarian): 1980 nM; GI50 (PC-3 prostate): < 36.7 nM; TGI (PC-3 prostate): 477 nM; GI50 (CAKI-1 renal): 33 nM; TGI (CAKI-1 renal): 205 nM; GI50 (T-47D breast): 59.5 nM; TGI (T-47D breast): 839 nM; GI50 (HL-60(TB) leukemia): < 10 nM; TGI (HL-60(TB) leukemia): < 10 nM; GI50 (K-562 leukemia): < 35.9 nM; TGI (K-562 leukemia): 923 nM; GI50 (HCT-15 colon): 44.4 nM; TGI (HCT-15 colon): 723 nM; GI50 (HT29 colon): < 12.1 nM; GI50 (RPMI-8226 leukemia): 322 nM; TGI (RPMI-8226 leukemia): 2260 nM; GI50 (HOP-92 NSCLC): < 11.3 nM; TGI (HOP-92 NSCLC): 150 nM; GI50 (NCI-H522 lung): < 10 nM; TGI (NCI-H522 lung): < 10 nM; GI50 (MOLT-4 leukemia): < 10 nM; TGI (MOLT-4 leukemia): < 10 nM; TGI (A498 renal): 1830 nM; TGI (MDA-MB-435): 503 nM; GI50 (TK-10 renal): 27.5 nM; TGI (TK-10 renal): 280 nM; GI50 (KM12 colon): 101 nM; TGI (KM12 colon): 607 nM; TGI (SNB-75 CNS): 381 nM; GI50 (LOX IMVI melanoma): < 10 nM; TGI (LOX IMVI melanoma): < 10 nM; GI50 (NCI/ADR-RES ovarian): 154 nM; TGI (NCI/ADR-RES ovarian): 970 nM; GI50 (BT-549 breast): 197 nM; TGI (BT-549 breast): 2290 nM; GI50 (SK-MEL-5 melanoma): < 15.4 nM; TGI (SK-MEL-5 melanoma): 178 nM; GI50 (MDA-MB-231 breast): 153 nM; TGI (MDA-MB-231 breast): 579 nM; GI50 (CCRF-CEM leukemia): < 10 nM; GI50 (NCI-H23 lung): < 10 nM; TGI (NCI-H23 lung): 22.4 nM; GI50 (UACC-257 melanoma): 270 nM; TGI (UACC-257 melanoma): 872 nM; GI50 (OVCAR-5 ovarian): 168 nM; TGI (OVCAR-5 ovarian): 1450 nM; GI50 (SK-MEL-28 melanoma): < 37.5 nM; TGI (SK-MEL-28 melanoma): 142 nM; GI50 (RXF 393 renal): < 10 nM; TGI (RXF 393 renal): < 10 nM; GI50 (DU-145 prostate): < 10 nM; TGI (DU-145 prostate): < 10 nM; GI50 (UACC-62 melanoma): 962 nM; TGI (UACC-62 melanoma): 2140 nM; TGI (SF-295 CNS): 562 nM; GI50 (U251 CNS): < 10 nM; TGI (U251 CNS): 20.6 nM; GI50 (HS 578T breast): 206 nM; TGI (SN12C renal): 486 nM; TGI (SNB-19 CNS): 701 nM; GI50 (SK-MEL-2 melanoma): 137 nM; TGI (SK-MEL-2 melanoma): 34600 nM; GI50 (EKVX NSCLC): 88.5 nM; TGI (EKVX NSCLC): 1610 nM; GI50 (SF-539 CNS): < 26.8 nM; TGI (SF-539 CNS): 138 nM; GI50 (MCF7 breast): < 10 nM; TGI (MCF7 breast): 219 nM; GI50 (M14 melanoma): < 48.6 nM; GI50 (UO-31 renal): 705 nM; TGI (UO-31 renal): > 100000 nM; GI50 (NCI-H460 lung): < 19 nM; TGI (NCI-H460 lung): 902 nM; GI50 (OVCAR-4 ovarian): < 10 nM; TGI (OVCAR-4 ovarian): 231 nM; GI50 (HCC-2998 colon): < 19.8 nM; TGI (HCC-2998 colon): 224 nM
